According to US20230097157A1, “Bicyclic Pyridin-2-one and pyrimidin-4-one Derivatives Useful As a Factor XIa Inhibitors” (Janssen Pharmaceutica NV, priority 2021, published 2023):
Where two headings read alike, the source gives them in different places.

Columns and labels:
Factor XIa = Factor XIa (Homo sapiens, UniProt P03951); test: Factor XIa inhibition assay (FLINT) utilizing a fluorophore-quencher pair peptide substrate 5Fam-[…]-K5Tamra; format: biochemical; settings: kinetic (KIN) reads, read-out: FXIa KIN Inh IC50
From the text: Biological Example 1: Factor XIa Inhibition Assay Utilizing a Fluorophore-Quencher Pair Peptide Substrate A fluorescence intensity (FLINT) based assay was used to monitor inhibition of Factor XIa. The peptide substrate, 5Fam-[…]-K5Tamra (purchased from New England Peptide) was chosen based on the FXI sequence. Conversion of zymogen FXI to its activated form, FXIa, occurs by proteolytic cleavage by […] at two sites, Arg146 and Arg180. The custom peptide used in this assay was based on the Arg146 cleavage site of FXI. The peptide substrate was designed with a fluorophore-quencher pair, where the fluorescence is quenched until FXIa cleaves the 8-mer peptide after the Arg residue.
The Factor XIa FLINT assay was used with the following 5Fam-[…]-K5Tamra assay buffer: 50 mM Tris, pH 7.5, 100 mM NaCl, 5 mM CaCl2, 0.1 mg/mL BSA, 0.03% CHAPS. Assay buffer was prepared by mixing all ingredients fresh. 5Fam-[…]-K5Tamra peptide substrate was first prepared at 10 mM in 100% DMSO, then diluted to 3 mM in 100% DMSO. Assay buffer was then added directly to the 3 mM stock of substrate to prepare the 30 μM 2× working concentration (15 μM final concentration). The 2× Factor XIa stock solution was prepared by diluting 6.562 μM stock in 1× assay buffer for a […].
Test compound(s) were run in an 11-point, 3-fold serial dilution with a final top compound concentration of 100 nM. Final DMSO in assay was 2%. FXIa was preincubated with compound for 30-minutes and then substrate was added to initiate the reaction. The assay was run with kinetic (KIN) reads at 5 min intervals over 30 minutes. […] More specifically, the assay was run as follows: • 100 nL of 0.01 mM test compound was dispensed into black 384-well non-binding Greiner BioOne 784900 plate for 0.1 μM final concentration; • 5 μL of 1× assay buffer was dispensed to column 24 (low control) and 5 μL 2× Factor XIa solution was dispensed to columns 1-23 (column 23 high control); • the plate was centrifuged with a “cover” plate at 500 rpm for 1 min • the plate was pre-incubated for 30 minutes at room temperature with plate covered; • 5 μL of 2×5Fam-[…]-K5Tamra peptide substrate was dispensed into the entire plate, columns 1-24; • the plate was centrifuged with a “cover” plate at 500 rpm for 1 min; • the plate was read monitoring fluorescence intensity on the BMG PHERAStar at room temperature, using fluorescence module 485 nm/520 nm.
(§1) Percent inhibition (IC50) curves were generated per compound tested, and data was analyzed using a 4-parameter logistic fit using GeneData Screener. The relative fluorescence unit (RFU) values were normalized to percent inhibition using the following equation:
% inhibition=((HC−LC)−(compound−LC)/(HC−LC))*100 where LC−low control=mean signal of no Factor XIa or 100% inhibition of Factor XIa; HC−high control=mean signal of Factor XIa+5Fam-[…]-K5Tamra peptide substrate with DMSO only.
(§2) An 11-point dose response curve for the test compound(s) was generated using GENDATA to determine IC50 value based on the following equation:
Y=Bottom+(Top−Bottom)/(1+10^((log IC50−X)*HillSlope)) where Y is the % inhibition in the presence of X inhibitor concentration, Top=high control=mean signal of Factor XIa+5Fam-[…]-K5Tamra peptide substrate with DMSO only; Bottom=low control−mean signal of no Factor XIa or 100% inhibition of Factor XIa; HillSlope−Hill coefficient; and IC50=concentration of compound with 50% inhibition in relation to top/high control.

human plasma kallikrein = human plasma kallikrein (Homo sapiens, UniProt P03952); test: Kallikrein inhibition assay (FLINT) utilizing a quenched AMC peptide substrate Z-Gly-Pro-Arg-AMC; format: biochemical; settings: kinetic (KIN) reads, read-out: Kallikrein KIN Inh IC50
From the text: Biological Example 2: Kallikrein Inhibition Assay Utilizing a Quenched AMC Peptide Substrate A fluorescence intensity (FLINT) based assay was used to monitor inhibition of human plasma kallikrein. The peptide substrate, Z-Gly-Pro-Arg-AMC (Purchased from Bachem; Catalog #I-1150) was chosen based on its relatively low KM for kallikrein which enables running the assay at lower substrate concentrations to control background fluorescence.
The Kallikrein FLINT assay was used with the following Z-Gly-Pro-Arg-AMC assay buffer: 50 mM Tris, pH 7.5, 100 mM NaCl, 5 mM CaCl2, 0.1 mg/mL BSA, 0.03% CHAPS. Assay buffer was prepared by mixing all ingredients fresh. 2× Z-Gly-Pro-Arg-AMC peptide substrate was prepared by diluting 10 mM stock into 1× assay buffer for a 100 μM working concentration (50 μM final concentration). The 2× kallikrein stock solution was prepared by diluting 14.76 μM stock in 1× assay buffer for a 4 nM working stock solution (2 nM final concentration).
Test compound(s) were run in an 11-point, 3-fold serial dilution with a final top compound concentration of 1 μM. Final DMSO in assay was 2%. Plasma kallikrein was pre-incubated for 30-minute with compound and then 50 μM substrate was added to initiate the reaction. The assay was run with kinetic (KIN) reads at 5 min intervals over 30 minutes. The time course was linear using 2 nM kallikrein greater than 30 minutes. More specifically, the assay was run as follows: • 100 nL of 0.1 mM test compound was dispensed into black 384-well non-binding Greiner BioOne 784900 plate for 1 μM final concentration; • 5 μL of 1× assay buffer was dispensed to columns 24 (low control) and 5 μL 2× human kallikrein enzyme solution was dispensed to columns 1-23 (column 23 high control); • the plate was centrifuged with a “cover” plate at 500 rpm for 1 min • the plate was pre-incubated for 30 minutes at room temperature with plate covered; • 5 μL of 2× Z-Gly-Pro-Arg-AMC peptide substrate was dispensed into the entire plate, columns 1-24; • the plate was centrifuged with a “cover” plate at 500 rpm for 1 min; • the plate was read monitoring fluorescence intensity on the BMG PHERAStar at room temperature, using fluorescence module 340 nm/440 nm.
as §1
% inhibition=((HC−LC)−(compound−LC)/(HC−LC))*100 where LC—low control=mean signal of […] or 100% inhibition of human kallikrein enzyme; HC—high control=mean signal of […]+Z-Gly-Pro-Arg-AMC peptide substrate with DMSO only.
as §2
Y=Bottom+(Top−Bottom)/(1+10^((log IC50−X)*HillSlope)) where Y is the % inhibition in the presence of X inhibitor concentration, Top=high control=mean signal of human kallikrein enzyme+Z-Gly-Pro-Arg-AMC peptide substrate with DMSO only; Bottom=low control−mean signal of no human kallikrein enzyme or 100% inhibition of human kallikrein enzyme; HillSlope−Hill coefficient; and IC50=concentration of compound with 50% inhibition in relation to top/high control.

Chain of Factor XIa (P03951 388-625 limits assumed): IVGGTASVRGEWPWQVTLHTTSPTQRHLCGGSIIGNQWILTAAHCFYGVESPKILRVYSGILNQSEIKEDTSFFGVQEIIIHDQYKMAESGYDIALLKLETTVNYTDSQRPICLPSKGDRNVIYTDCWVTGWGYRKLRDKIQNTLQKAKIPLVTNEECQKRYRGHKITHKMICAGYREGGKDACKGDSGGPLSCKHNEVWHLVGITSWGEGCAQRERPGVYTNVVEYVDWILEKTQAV
Chain of Factor XIa (P03951 19-387 partner limits assumed): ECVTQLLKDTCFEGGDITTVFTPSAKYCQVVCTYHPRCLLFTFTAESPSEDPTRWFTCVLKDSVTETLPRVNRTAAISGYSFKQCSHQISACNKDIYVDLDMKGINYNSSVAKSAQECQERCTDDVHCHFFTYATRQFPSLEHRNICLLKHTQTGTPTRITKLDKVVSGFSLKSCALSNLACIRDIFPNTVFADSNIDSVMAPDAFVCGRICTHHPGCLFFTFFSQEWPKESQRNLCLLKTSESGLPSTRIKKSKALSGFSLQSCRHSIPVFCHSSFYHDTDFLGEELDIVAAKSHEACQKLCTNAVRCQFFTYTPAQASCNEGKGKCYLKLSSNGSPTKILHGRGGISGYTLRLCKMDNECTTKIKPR
Chain of human plasma kallikrein (P03952 391-638 limits assumed): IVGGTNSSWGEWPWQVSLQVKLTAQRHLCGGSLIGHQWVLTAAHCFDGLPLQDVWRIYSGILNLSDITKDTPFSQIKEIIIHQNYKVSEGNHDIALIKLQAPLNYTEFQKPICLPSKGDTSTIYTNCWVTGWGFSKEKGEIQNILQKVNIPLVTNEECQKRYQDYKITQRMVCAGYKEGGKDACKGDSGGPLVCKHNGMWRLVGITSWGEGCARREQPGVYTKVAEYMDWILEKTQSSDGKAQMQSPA
Chain of human plasma kallikrein (P03952 20-390 partner limits assumed): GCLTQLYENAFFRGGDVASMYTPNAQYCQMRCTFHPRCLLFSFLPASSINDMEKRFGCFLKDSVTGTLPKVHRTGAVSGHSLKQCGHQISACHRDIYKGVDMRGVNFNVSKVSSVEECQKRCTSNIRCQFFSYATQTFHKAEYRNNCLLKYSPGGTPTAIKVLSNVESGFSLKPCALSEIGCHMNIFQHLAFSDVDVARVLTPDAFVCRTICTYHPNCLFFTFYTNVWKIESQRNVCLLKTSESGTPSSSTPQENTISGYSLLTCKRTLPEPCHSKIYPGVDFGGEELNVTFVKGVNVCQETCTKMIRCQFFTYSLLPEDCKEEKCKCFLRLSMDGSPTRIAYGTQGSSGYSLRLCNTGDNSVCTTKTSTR

| IC50 (Factor XIa; values in nM) | IC50 (human plasma kallikrein; values in nM) | IC50 (human plasma kallikrein; unit μM) | IC50 (Factor XIa; unit μM) | SMILES |
| --- | --- | --- | --- | --- |
| 32.1 nM | 27.7 nM | – | – | O=c1cc(-c2c(-n3cnnn3)ccc(Cl)c2F)nc2n1[C@H](c1nc(-c3ccnc(OCC(O)C(F)(F)F)c3F)c[nH]1)CC21CC1 (single isomer, unassigned) [Example 74, (S)-2′-(3-chloro-2-fluoro-6-(1H-tetrazol-1-yl)phenyl)-6′-(4-(3-fluoro-2-((R*)-3,3,3-trifluoro-2-hydroxypropoxy)pyridin-4-yl)-1H-imidazol-2-yl)-6′,7′-dihydro-4′H-spiro[cyclopropane-1,8′-pyrrolo[1,2-a]pyrimidin]-4′-one] |
| 53.8 nM | 142 nM | – | – | Nc1nsc2cc(-c3cnc([C@H]4CC5(CC5)c5nc(-c6c(-n7cnnn7)ccc(Cl)c6F)cc(=O)n54)[nH]3)ccc12 [Example 82, (R)-6′-(5-(3-Aminobenzo[d]isothiazol-6-yl)-1H-imidazol-2-yl)-2′-(3-chloro-2-fluoro-6-(1H-tetrazol-1-yl)phenyl)-6′,7′-dihydro-4′H-spiro[cyclopropane-1,8′-pyrrolo[1,2-a]pyrimidin]-4′-one] |
| 0.5 nM | 20.8 nM | – | – | C[C@H]1C[C@@H](c2nc(-c3ncc(N)nc3Cl)c[nH]2)n2c1nc(-c1c(-n3cnnn3)ccc(Cl)c1F)cc2=O [Example 93, (6S,8S)-6-(4-(5-Amino-3-chloropyrazin-2-yl)-1H-imidazol-2-yl)-2-(3-chloro-2-fluoro-6-(1H-tetrazol-1-yl)phenyl)-8-methyl-7,8-dihydropyrrolo[1,2-a]pyrimidin-4(6H)-one] |
| 873 nM | – | 1200 nM | – | C[C@H]1C[C@H](c2ncc(-c3ccnc(C#N)c3)[nH]2)n2c1cc(-c1c(-n3cnnn3)ccc(Cl)c1F)cc2=O (relative stereo) [Example 30, 4-(2-((1S,3R)-7-(3-Chloro-2-fluoro-6-(1H-tetrazol-1-yl)phenyl)-1-methyl-5-oxo-1,2,3,5-tetrahydroindolizin-3-yl)-1H-imidazol-5-yl)picolinonitrile] |
| – | – | > 10000 nM | > 10000 nM | Cc1nc(N)c(F)cc1-c1cnc([C@@H]2C[C@H](C)c3nc(-c4c(-n5cnnn5)ccc(Cl)c4F)cc(=O)n32)[nH]1 (stereo in doubt) [Example 130, (6*S,8*S)-6-(5-(6-Amino-5-fluoro-2-methylpyridin-3-yl)-1H-imidazol-2-yl)-2-(3-chloro-2-fluoro-6-(1H-tetrazol-1-yl)phenyl)-8-methyl-7,8-dihydropyrrolo[1,2-a]pyrimidin-4(6H)-one] |
| – | – | > 10000 nM | 6100 nM | COC(=O)Nc1ccc(-c2cnc([C@H]3C[C@@H](C)c4nc(-c5c(-n6cnnn6)ccc(Cl)c5F)cc(=O)n43)[nH]2)cn1 (stereo in doubt) [Example 117, Methyl (5-(2-((6*R,8*R)-2-(3-Chloro-2-fluoro-6-(1H-tetrazol-1-yl)phenyl)-8-methyl-4-oxo-4,6,7,8-tetrahydropyrrolo[1,2-a]pyrimidin-6-yl)-1H-imidazol-5-yl)pyridin-2-yl)carbamate] |
| 8.3 nM | 52.9 nM | – | – | COC(=O)Nc1ccc(-c2cnc([C@H]3C[C@H](C)c4nc(-c5c(-n6cnnn6)ccc(Cl)c5F)cc(=O)n43)[nH]2)cc1 (stereo in doubt) [Example 124, Methyl (4-(2-((6*R,8*S)-2-(3-Chloro-2-fluoro-6-(1H-tetrazol-1-yl)phenyl)-8-methyl-4-oxo-4,6,7,8-tetrahydropyrrolo[1,2-a]pyrimidin-6-yl)-1H-imidazol-5-yl)phenyl)carbamate] |
| ~575 nM | – | 9100 nM | – | C[C@H]1C[C@@H](c2ncc(-c3ccc(N)nc3Cl)[nH]2)n2c1nc(-c1c(-n3cnnn3)ccc(Cl)c1F)cc2=O (single isomer, unassigned) [Example 140] |
| 19.4 nM | 118 nM | – | – | O=c1cc(-c2c(-n3cnnn3)ccc(Cl)c2F)nc2n1C(c1nc(F)c(-c3ccnc(CO)c3F)[nH]1)CC21CC1 (racemic) [Example 69, 2′-(3-Chloro-2-fluoro-6-(1H-tetrazol-1-yl)phenyl)-6′-(4-fluoro-5-(3-fluoro-2-(hydroxymethyl)pyridin-4-yl)-1H-imidazol-2-yl)-6′,7′-dihydro-4′H-spiro[cyclopropane-1,8′-pyrrolo[1,2-a]pyrimidin]-4′-one] |
| 3.1 nM | 17.5 nM | – | – | C[C@H]1C[C@@H](c2ncc(-c3ccc(NC(=O)C4CC4)nc3)[nH]2)n2c1nc(-c1c(-n3cnnn3)ccc(Cl)c1F)cc2=O (stereo in doubt) [Example 123, N-(5-(2-((6*S,8*S)-2-(3-Chloro-2-fluoro-6-(1H-tetrazol-1-yl)phenyl)-8-methyl-4-oxo-4,6,7,8-tetrahydropyrrolo[1,2-a]pyrimidin-6-yl)-1H-imidazol-5-yl)pyridin-2-yl)cyclopropanecarboxamide] |
| 165 nM | – | 3200 nM | – | C[C@H]1C[C@@H](c2ncc(-c3cc(N)nn3C)[nH]2)n2c1cc(-c1c(-n3cnnn3)ccc(Cl)c1F)cc2=O [Example 15, (1S,3S)-3-(5-(3-Amino-1-methyl-1H-pyrazol-5-yl)-1H-imidazol-2-yl)-7-(3-chloro-2-fluoro-6-(1H-tetrazol-1-yl)phenyl)-1-methyl-2,3-dihydroindolizin-5(1H)-one] |
| > 100 nM | – | > 1000 nM | – | CC(O)c1nccc(-c2cnc([C@@H]3CC4(CC4)c4cc(-c5c(-n6cnnn6)ccc(Cl)c5F)cc(=O)n43)[nH]2)c1F (single isomer, unassigned) [Example 5, (3'S)-7′-(3-Chloro-2-fluoro-6-(1H-tetrazol-1-yl)phenyl)-3′-(5-(3-fluoro-2-(1-hydroxyethyl)pyridin-4-yl)-1H-imidazol-2-yl)-2′,3′-dihydro-5′H-spiro[cyclopropane-1,1′-indolizin]-5′-one] |
